Assay results published in PMC10419252, “Synthesis, Properties, and Biomedical Application of Dicationic Gemini Surfactants with Dodecane Spacer and Carbamate Fragments” (International Journal of Molecular Sciences, 2023).
≈ marks a conversion by molar mass, not a printed value. Where “and” joins values, the source holds several entries; their conditions need not be identical. Equal values may be shown once. Read-outs that look alike come from different tables or passages of the source.

Legend:
[1] = system: Aspergillus niger BKMF-1119; assay: Antifungal activity (An); type: cell-based
Procedure: (§1) The antimicrobial activity of the compounds was tested on Gram-positive Staphylococcus aureus ATCC 6538P FDA 209P (Sa), Bacillus cereus ATCC 10702 NCTC 8035 (Bc), Enterococcus faecalis ATCC 29212 (Ef), and Gram-negative bacteria Escherichia coli ATCC 25922 (Ec), Pseudomonas aeruginosa ATCC 9027 (Pa), including methicillin-resistant strains of S. aureus MRSA-1 (resistant to fluoroquinolones and beta-lactams) and MRSA-2 (resistant to beta-lactams). Antifungal activity was studied against Candida albicans ATCC 10231 (Ca), Trichophyton mentagrophytes var. gypseum 1773 (Tm), and Aspergillus niger BKMF-1119 (An). A more detailed description of the experiment is published in [21].

[2] = system: Candida albicans ATCC 10231; assay: Antifungal activity (Ca); type: cell-based
Procedure: as §1

[3] = system: Trichophyton mentagrophytes var. gypseum 1773; assay: Antifungal activity (Tm); type: cell-based
Procedure: as §1

[4] = alkyltrimethylammonium bromides; cited from earlier work
[5] = target: T1, human acetylcholinesterase (hAChE) (Homo sapiens, UniProt P22303); assay: biochemical
T1 construct: purchased Sigma-Aldrich
Procedure: (§2) Stock solutions (0.01 M) of the compounds were dissolved in H2O. The inhibitory activity of compounds against hAChE and hBChE was measured using Ellman’s method. Enzyme-catalyzed hydrolysis was carried out in 0.1 M PBS (pH = 8.0) containing 0.1 nM hAChE or hBChE, 0.1 mM 5,5′-dithiobis-(2-nitrobenzoic acid) and 1mM acetylthiocholine or butyrylthiocholine as substrates. The tested compounds were incubated with the enzyme for 5 min prior to the addition of the substrate. Analyses were performed at 298 K using a Shimadzu UV-1800 spectrophotometer (Shimadzu Co., Kyoto, Japan) at 412 nm. The substrate hydrolysis rate was measured within 2 min. A sample without inhibitor was used as a control (100% cholinesterase activity). A sample without substrate was used as a blank. The experiments were conducted in triplicate. The percentage of enzyme inhibition was determined using OriginPro 8.5 software (OriginLab Corporation, Northampton, MA, USA) by plotting a percentage of the inhibition versus compound concentration. IC50 values (inhibitor concentration required to inhibit enzyme activity by 50%) were determined by the Hill equation: E/Emax=[I]^n/IC50n+[I]^n, where E is enzyme activity in the presence of the compound, and [I] is the compound concentration.

[6] = system: Pseudomonas aeruginosa ATCC 9027; assay: Antimicrobial activity (Pa); type: cell-based; details: Pseudomonas aeruginosa
Procedure: as §1

[7] = Orange OT solubilization, spectrophotometry (Schott method for Nagg); type: physicochemical
Procedure: (§3) The cmc and the solubilizing capacity (S) of surfactants were determined using the spectral azo dye OOT and the non-steroidal anti-inflammatory drug IND. To obtain a saturated solution, an excess of OOT and IND was added to 2 mL of a surfactant solution, stirred, and kept for 48 and 24 h, respectively. After that, the solutions were filtered using Millex® Syringe Filters (Millipore, Burlington, MA, USA) with a pore size of 450 nm, and the optical density was measured. The absorption spectra were recorded on a Specord 250 Plus spectrophotometer (Analytik Jena AG, Jena, Germany). Quartz cells with a thickness of 1 and 0.5 cm (Hellma Analytics, Müllheim, Germany) were used for measurements.
(§4) The solubilizing capacity (S) was determined using the following formula:S = b/ε, where b is D/l = f (Csurf) dependency slope (above cmc), ε is the extinction coefficient (17,400 L/mol∙cm for OOT, and the extinction coefficients of IND are determined in GS solutions and presented in Figure S10).
The OOT solubilization method (Schott method) was used to calculate the micelle Nagg. The Nagg values were calculated for each point on the curve of dependence of the OOT-reduced optical density on the surfactant concentration above the cmc according to the presented formula:[…], where ε is the extinction coefficient of OOT, Csurf is the surfactant concentration above cmc, and D is the optical density.

[8] = system: Escherichia coli ATCC 25922; assay: Antimicrobial activity (Ec); type: cell-based; details: Escherichia coli
Procedure: as §1

[9] = Conductometry; type: physicochemical; details: 298 K
Procedure: The electrical conductivity of the micellar solutions was determined on an InoLab Cond 7110 conductometer (WTW, Weilheim, Germany). For the experiment, surfactant solutions with a volume of 10 mL were prepared. The electrical conductivity of all solutions was recorded at 298 K, and the electrode was washed with purified water after each measurement. The cmc was determined from the breakpoint of the dependence of electrical conductivity on the concentration of surfactants.

[10] = system: methicillin-resistant S. aureus MRSA-1 (resistant to fluoroquinolones and beta-lactams); assay: Antimicrobial activity (MRSA-1); type: cell-based; details: Staphylococcus aureus, MRSA
Procedure: as §1

[11] = Pyrene fluorimetry; type: physicochemical; details: 298 K
Procedure: To determine cmc by fluorimetry, a hydrophobic probe pyrene was added to a series of surfactant solutions at a concentration of 1 μM. The solutions were kept for 30–40 min for complete solubilization of the probe. The fluorescent emission spectra of pyrene were recorded on an F-7100 fluorimeter (Hitachi, Tokyo, Japan) using 10 × 4 mm quartz cuvette (Hellma Analytics, Müllheim, Germany) with the following settings: λex = 335 nm, λem = 350–600 nm, and scanning speed = 1200 nm/min. The cmc was calculated from the dependence of the pyrene polarity index (the ratio of the intensities of the first (373 nm) and third (383 nm) peaks) on the surfactant concentration.

[12] = Indomethacin solubilization, spectrophotometry; type: physicochemical; details: 298 K
Procedure: as §3, §4

[13] = Electrode potential measurement with Br− selective electrode (potentiometry); type: physicochemical; details: 298 K
Procedure: The electrode potential measurements were performed for the Br^− counterion using the I-160MI laboratory ionomer (JSC Scientific and Production Association of the Measuring Equipment, Moscow, Russia). Br^− selective electrode (ELIS-131Br) and a reference electrode (ESr-10101) were used for measurement of the electromotive force (ΔE) of aqueous solution of surfactants (the concentration from 0.02 to 0.5 mM for 12-12-12(Et); from 0.002 to 0.05 mM for 14-12-14(Et)). To calibrate the ionomer, a series of KBr solutions were prepared in the concentration range of 0.1 mM to 100 mM.
β = 0.5(2Ct − CBr^−)/(Ct − cmc).

[14] = system: methicillin-resistant S. aureus MRSA-2 (resistant to beta-lactams); assay: Antimicrobial activity (MRSA-2); type: cell-based; details: Staphylococcus aureus, MRSA
Procedure: as §1

[15] = Tensiometry (Du Nouy ring), surface tension isotherms; type: physicochemical
Procedure: The surface tension isotherms of the micellar solutions were determined using the Du Nouy platinum ring detachment method on a K6 tensiometer (KRŰSS GmbH, Hamburg, Germany). For the experiment, surfactant solutions with a volume of 10 mL were prepared. The measurements were carried out strictly at 298 K in glass beakers, the diameter of which exceeded the diameter of the platinum ring. Surface tension measurements were carried out until stable values were obtained. After each measurement, the ring was degreased in ethanol and thoroughly dried. The cmc of the micellar solutions was determined from the breakpoint on the isotherm of surface tension versus surfactant concentration. The thermodynamic parameters of adsorption and micellization were calculated for all systems based on the obtained tensiometric curves.

[16] = system: Staphylococcus aureus ATCC 6538P FDA 209P; assay: Antimicrobial activity (Sa); type: cell-based; details: Staphylococcus aureus
Procedure: as §1

[17] = system: Bacillus cereus ATCC 10702 NCTC 8035; assay: Antimicrobial activity (Bc); type: cell-based; details: Bacillus cereus
Procedure: as §1

[18] = system: Enterococcus faecalis ATCC 29212; assay: Antimicrobial activity (Ef); type: cell-based; details: Enterococcus faecalis
Procedure: as §1

[19] = target: T2, human butyrylcholinesterase (hBChE) (Homo sapiens, UniProt P06276); assay: In vitro cholinesterase inhibition, Ellman's method (hBChE); type: biochemical
T2 construct: purchased Sigma-Aldrich
Procedure: as §2

T1 sequence (P22303 32-614): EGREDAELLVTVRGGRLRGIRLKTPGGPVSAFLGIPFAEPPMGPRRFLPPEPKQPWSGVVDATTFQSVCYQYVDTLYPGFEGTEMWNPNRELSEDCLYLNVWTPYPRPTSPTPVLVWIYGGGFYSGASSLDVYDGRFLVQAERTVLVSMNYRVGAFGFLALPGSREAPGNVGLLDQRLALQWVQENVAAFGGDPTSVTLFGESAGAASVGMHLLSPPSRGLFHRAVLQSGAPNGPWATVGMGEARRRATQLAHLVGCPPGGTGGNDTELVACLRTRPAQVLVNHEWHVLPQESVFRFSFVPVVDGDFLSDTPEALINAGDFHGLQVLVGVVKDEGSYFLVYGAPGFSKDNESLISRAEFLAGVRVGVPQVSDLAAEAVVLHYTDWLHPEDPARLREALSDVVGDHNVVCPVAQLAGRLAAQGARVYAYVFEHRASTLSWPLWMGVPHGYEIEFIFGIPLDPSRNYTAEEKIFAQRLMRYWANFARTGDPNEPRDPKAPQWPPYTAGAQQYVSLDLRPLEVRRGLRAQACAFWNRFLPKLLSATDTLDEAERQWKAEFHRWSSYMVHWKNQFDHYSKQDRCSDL
T2 sequence (P06276 29-602): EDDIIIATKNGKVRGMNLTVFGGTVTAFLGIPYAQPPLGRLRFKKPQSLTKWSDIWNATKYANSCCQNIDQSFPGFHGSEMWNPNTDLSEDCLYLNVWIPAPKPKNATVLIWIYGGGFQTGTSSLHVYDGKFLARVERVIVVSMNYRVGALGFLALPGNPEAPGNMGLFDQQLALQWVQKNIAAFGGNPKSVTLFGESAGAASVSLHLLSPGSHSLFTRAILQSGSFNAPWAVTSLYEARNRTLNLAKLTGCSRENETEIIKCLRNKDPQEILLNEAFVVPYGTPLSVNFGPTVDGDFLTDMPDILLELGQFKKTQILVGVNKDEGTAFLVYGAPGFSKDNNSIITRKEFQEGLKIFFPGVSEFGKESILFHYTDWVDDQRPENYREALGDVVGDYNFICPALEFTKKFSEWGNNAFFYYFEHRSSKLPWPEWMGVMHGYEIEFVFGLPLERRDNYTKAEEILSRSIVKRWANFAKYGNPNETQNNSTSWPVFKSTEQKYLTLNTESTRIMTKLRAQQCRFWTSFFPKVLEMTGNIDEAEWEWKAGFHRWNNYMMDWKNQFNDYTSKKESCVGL

`CC(=O)N1CCN(c2ccc(OCC3COC(Cn4ccnc4)(c4ccc(Cl)cc4Cl)O3)cc2)CC1` (centres unmarked) [Ketoconazole, reference compound] showed an MFC ([1]; Aspergillus niger, BKMF1119; read-out: MFC, An) of 125 ± 10 µg/mL (≈ 235 µM), an MIC ([1]; Aspergillus niger, BKMF1119; read-out: MIC, An) of 15.6 ± 1.3 µg/mL (≈ 29.4 µM) and an MFC ([2]; Candida albicans, ATCC10231; read-out: MFC, Ca) of 3.9 ± 0.3 µg/mL (≈ 7.34 µM). It also gave an MIC ([2]; Candida albicans, ATCC10231; read-out: MIC, Ca) of 3.9 ± 0.3 µg/mL (≈ 7.34 µM), an MFC ([3]; Trichophyton mentagrophytes; read-out: MFC, Tm) of 3.9 ± 0.3 µg/mL (≈ 7.34 µM) and an MIC ([3]; Trichophyton mentagrophytes; read-out: MIC, Tm) of 3.9 ± 0.3 µg/mL (≈ 7.34 µM).
In the case of `CCCCCCCCCCCCCC[N+](C)(C)C.[Br-]` [C14TAB], the Nagg [4] is given as 70.
With `CCCCCCCCCCCCCC[N+](C)(CCCCCCCCCCCC[N+](C)(CCCCCCCCCCCCCC)CCOC(=O)NCC)CCOC(=O)NCC` (centres unmarked) [14-12-14(Et)] the IC50 [5] was 11 ± 0.5 nM, the “SIhBChE/hAChE (selectivity index)” value ([5]; IC50 hBChE / IC50 hAChE) was 131 and the MBC ([6]; ATCC9027, read-out: MBC, Pa) was 125 ± 10 µg/mL. It also gave an MIC ([6]; ATCC9027, read-out: MIC, Pa) of 125 ± 10 µg/mL, an MFC ([1]; Aspergillus niger, BKMF1119, read-out: MFC, An) greater than 250 µg/mL and an MIC ([1]; Aspergillus niger, BKMF1119, read-out: MIC, An) greater than 250 µg/mL. The “S (solubilizing capacity), OOT” value [7] was 0.047 molOOT/molGS, the “S (solubilizing capacity), OOT” value ([7]; 298 K) was 0.047 molprobe/molGS and the “cmc, Spectrophotometry” value ([7]; OOT, 298 K) was 0.045 ± 0.003 mM. The “Nagg (aggregation number)” value ([7]; Schott approach, OOT solubilization, 298 K) was 16, the MBC ([8]; ATCC25922, read-out: MBC, Ec) was 31.3 ± 2.6 µg/mL and the MIC ([8]; ATCC25922, read-out: MIC, Ec) was 31.3 ± 2.5 µg/mL. The MFC ([2]; Candida albicans, ATCC10231, read-out: MFC, Ca) was 250 ± 21 µg/mL, the MIC ([2]; Candida albicans, ATCC10231, read-out: MIC, Ca) was 250 ± 19 µg/mL and the cmccond [9] was 0.05 mM and 0.05 ± 0.0013 mM. For the same compound, the “βcond (degree of counterion binding)” value [9] was 0.44, the MBC ([10]; read-out: MBC, MRSA-1) was 7.8 ± 0.6 µg/mL and the MIC ([10]; read-out: MIC, MRSA-1) was 7.8 ± 0.6 µg/mL. The MFC ([3]; Trichophyton mentagrophytes, read-out: MFC, Tm) was 250 ± 18 µg/mL, the MIC ([3]; Trichophyton mentagrophytes, read-out: MIC, Tm) was 250 ± 19 µg/mL and the “cmc, Fluorimetry” value [11] was 0.014 mM and 0.014 ± 0.0004 mM. The “S (solubilizing capacity), IND” value [12] was 1.51 molprobe/molGS, the “βpot (degree of counterion binding)” value [13] was 0.3 and the MBC ([14]; read-out: MBC, MRSA-2) was 7.8 ± 0.7 µg/mL. The MIC ([14]; read-out: MIC, MRSA-2) was 7.8 ± 0.7 µg/mL, the “Amin (surface area per surfactant molecule)” value ([15]; 298 K) was 0.52 nm^2 and the “Гmax∙10^6 (maximum surface excess)” value ([15]; 298 K) was 3.21 mol∙m^−2. The “∆Gmic (free energy of micellization)” value ([15]; 298 K) was -8.84 kcal/mol, the “calculated adsorption layer thickness” value ([15]; air/water interface) was 3.3 nm and the cmctens ([15]; tensiometry, 298 K) was 0.013 mM and 0.013 ± 0.0007 mM. For the same compound, the MBC ([16]; read-out: MBC, Sa) was 3.9 ± 0.3 µg/mL, the MIC ([16]; read-out: MIC, Sa) was 3.9 ± 0.2 µg/mL and the MBC ([17]; read-out: MBC, Bc) was 125 ± 9 µg/mL. The MIC ([17]; read-out: MIC, Bc) was 125 ± 10 µg/mL, the MBC ([18]; ATCC29212, read-out: MBC, Ef) was 3.9 ± 0.2 µg/mL and the MIC ([18]; ATCC29212, read-out: MIC, Ef) was 3.9 ± 0.3 µg/mL. For the same compound, the IC50 [19] was 1440 ± 520 nM.
